Like-named read-outs stand apart in the source and are kept apart here.
Columns and labels:
Type in all cases: biochemical
[1] = target: T1, four repeat construct K18 (Homo sapiens, UniProt P10636); experiment: Thioflavine S assay, inhibition of PHF formation, K18
T1 construct: made in house; host or cells: E. coli
Procedure: (§1) Assembly of synthetic PHFs of tau protein (K19, 10 μM) was performed at 37° C. in the presence of polyanions (heparin; 5 μM) in 50 mM NH4Ac, pH 6.8. Assembly was followed either qualitatively by electron microscopy or quantitatively by fluorescence assay using thioflavine S. PHF-formation of tau isoforms htau23 and htau24 was carried out in PBS-buffer pH 7.4, 50 μM protein, and 12.5 μM heparin. The samples were incubated at 50° C. for 10 days. In the case of htau24 and K18, DTT was added at a final concentration of 1 mM each day in order to avoid intra-molecular disulfide crosslinking (Barghorn et al., 2000).
(§2) PHF formation was monitored by a thioflavine S fluorescence assay (Friedhoff et al., 1998a) adapted to a 384 well format. 60 μM of each substance was tested for its inhibitory effect on PHF formation. Using an automated pipetting system (Cybi-Well, CyBio, Jena, Germany) 50 mM NH4AC, 10 μM protein (K19), 60 μM compound and 5 μM heparin were mixed in 50 μl volume in a 384 well plate (black microtiter 384 plate round well, ThermoLabsystems, Dreiich, Germany) and incubated overnight at 37° C. As a control the protein was replaced with H2O to measure the possible fluorescence of the compounds. As a second control the reaction mixture without compound was treated in the same way.
(§3) After incubation with the compounds thioflavine S was added to the buffer to a final concentration of 20 μM and the signal was measured at excitation at 440 nm and emission at 521 nm in a spectrofluorimeter (Ascent; Labsystems, Frankfurt).
The four repeat construct K18 was tested under the same conditions (FIG. 2B). […] However, the decay of the curves of K18 is more gradual than those of K19, extending over 3-4 orders of magnitude of compound concentration (compare FIG. 2A).

PHFs from htau23 = target: T2, PHFs from htau23 (Homo sapiens, UniProt P10636); experiment: Thioflavine S assay, depolymerisation of pre-formed PHFs, htau23
T2 construct: made in house; host or cells: E. coli
Procedure: The ThS assay was used to analyse the ability of the five compounds (see Example 4) to depolymerise pre-formed PHFs made from the repeat domain constructs K19 and K18 as well as from isoforms htau23 and htau24, containing 3 or 4 repeats, respectively.
PHFs assembled from the full length three repeat isoform htau23 were also sensitive to disaggregation (FIG. 4C). The DC50 values ranged from 7.0 to 60 μM.
Tau constructs and isoforms K19, K18, hTau23, hTau24 (10 μM) were first aggregated into PHFs for 48 hours in the presence of 2.5 μM heparin (except K18/ΔK280) and the polymers separated from the soluble tau by centrifugation of 1 h at 100,000 g, redissolved and then exposed to the inhibitors overnight at 37° C. at the indicated concentrations (range 0.001-200 μM).

tau construct K19 = target: T3, tau construct K19 (Homo sapiens, UniProt P10636); experiment: Thioflavine S assay, inhibition of PHF formation, K19; conditions: ThS fluorescence, 10 μM K19, heparin; read-out: Inhibition of tau aggregation IC50, K19
T3 construct: construct K19 containing three repeats; made in house; host or cells: E. coli
Procedure: as §1, §2, §3
Inhibitory effects begun to appear at concentrations around 0.1 μM (ratio of protein to compound=100), and reached nearly complete inhibition at 100 μM compound concentration (ratio protein/compound=0.1). Overall, the curves of FIG. 2A decay fairly steeply over a compound concentration range of 2-3 orders of magnitude.
(A) extent of aggregation of tau construct K19 (10 μM) plotted vs. inhibitor concentration (range 1 fM-60 μM). The extent of aggregation was measured by the thioflavin S fluorescence assay and the degree of inhibition was plotted as percentage of control. All measurements were performed in triplicates.

htau23 = target: T4, htau23 (Homo sapiens, UniProt P10636); experiment: Thioflavine S assay, inhibition of PHF formation, htau23; conditions: for inhibition at 60 µM / inhibition at 0.1 µM: read-out: inhibition of PHF formation, htau23; for effect on PHF formation, htau23: low concentration
T4 construct: made in house; host or cells: E. coli
Procedure: as §1

[2] = ThS fluorescence, K18, heparin, read-out: Inhibition of tau aggregation IC50, K18
[3] = ThS fluorescence, read-out: Depolymerisation of PHFs DC50, hTau23
[4] = ThS fluorescence, read-out: Inhibition of tau aggregation IC50, hTau23

T4 sequence (P10636 1-352 isoform P10636-2): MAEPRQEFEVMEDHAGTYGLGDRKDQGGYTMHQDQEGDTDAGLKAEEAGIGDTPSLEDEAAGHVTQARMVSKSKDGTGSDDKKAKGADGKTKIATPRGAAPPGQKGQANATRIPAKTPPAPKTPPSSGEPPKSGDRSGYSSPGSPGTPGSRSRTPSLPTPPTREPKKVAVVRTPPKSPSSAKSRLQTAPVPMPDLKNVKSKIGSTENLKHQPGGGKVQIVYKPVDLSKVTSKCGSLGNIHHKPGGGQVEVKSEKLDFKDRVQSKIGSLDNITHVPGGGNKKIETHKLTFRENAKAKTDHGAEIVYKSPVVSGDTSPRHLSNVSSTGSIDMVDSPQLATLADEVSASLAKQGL
T2 sequence (P10636 1-352 isoform P10636-2): as above
T3 sequence (P10636 with tags, fused parts or gaps isoform P10636-2 limits assumed): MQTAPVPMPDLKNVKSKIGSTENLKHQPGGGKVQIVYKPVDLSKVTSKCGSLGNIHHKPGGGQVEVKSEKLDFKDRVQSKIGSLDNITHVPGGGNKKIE
T1 sequence (P10636 561-685 limits assumed): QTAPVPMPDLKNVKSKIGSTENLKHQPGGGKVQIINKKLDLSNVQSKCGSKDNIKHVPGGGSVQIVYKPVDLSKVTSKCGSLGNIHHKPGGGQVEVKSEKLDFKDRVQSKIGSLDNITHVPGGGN

| SMILES | IC50 [1, 2] [nM] | DC50 (PHFs from htau23; [3]) [nM] | IC50 (tau construct K19) [nM] | inhibition at 60 µM (htau23; 60 μM compound) [%] | IC50 (htau23; [4]) [nM] | effect on PHF formation, htau23 (htau23) | inhibition at 0.1 µM (htau23; 0.1 μM compound) [%] | IC50 [1] [nM] | DC50 (PHFs from htau23; read-out: Depolymerisation of PHFs DC50, hTau23, ThS fluorescence) [nM] | IC50 (htau23) [nM] | inhibition at 0.1 µM (htau23) [%] | inhibition at 60 µM (htau23) [%] |
| --- | --- | --- | --- | --- | --- | --- | --- | --- | --- | --- | --- | --- |
| O=C(c1ccccc1)c1ccc(O)c(O)c1O [PHF005, 1-Phenyl-1-(2,3,4-trihydroxy-phenyl)-methanone] | 2700 | > 60000 | 6000 | ~50 | 1100 | only a slight effect | – | – | – | – | – | – |
| Cc1cc(O)c2c(c1)C(=O)c1cc(O)cc(O)c1C2=O [Emodin, 1,3,8-Trihydroxy-6-methyl-anthraquinone] | 300 | 7000 | 2400 | ~90 | 200 | – | ~50 | – | – | – | – | – |
| COc1cccc2c1C(=O)c1c(O)c3c(c(O)c1C2=O)CC(O)(C(=O)CO)CC3OC1CC(N)C(O)C(C)O1 (stereo not shown) [Adriamycin, 10-(4-Amino-5-hydroxy-6-methyl-tetrahydro-pyran-2-yloxy)-6,8,11-trihydroxy-8-(2-hydroxyethanoyl)-1-methoxy-7,8,9,10-tetrahydro-naphthacene-5,12-dione, reference compound] | – | – | 17600 | – | – | – | – | 100 | 13200 | 200 | – | – |
| O=C1c2ccc(O)c(O)c2C(=O)c2c(O)ccc(O)c21 [PHF016, 1,2,5,8-Tetrahydroxy-anthraquinone] | 600 | > 60000 | 6800 | ~50 | 1000 | only a slight effect | – | – | – | – | – | – |
| COc1cccc2c1C(=O)c1c(O)c3c(c(O)c1C2=O)CC(O)(C(C)=O)CC3OC1CC(N)C(O)C(C)O1 (stereo not shown) [Daunorubicin, 8-Acetyl-10-(4-amino-5-hydroxy-6-methyl-tetrahydro-pyran-2-yloxy)-6,8,11-trihydroxy-1-methoxy-7,8,9,10-tetrahydro-naphthacene-5,12-dione, reference compound] | 300 | 8200 | 1000 | – | 100 | – | – | – | – | – | ~50 | ~90 |
